Experimental data: the supplement of paper PMC10627819

How the values were obtained:
B. subtilis 168 [1] = test: fitness (endpoint OD595 vs no drug) (fraction); higher = more growth
How it was run: (§1)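 Cultures at OD595 0.01 were dispensed into 384-well plates in TSB, LB Lennox or CY and incubated at 37 °C. Every 30 min for 14 h, OD595 was read and corrected by the first reading. Fitness is the optical density at entry into stationary phase relative to the robust mean of no-drug control wells, capped at 1.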

S. pneumoniae D39V [2] = test: as above
How it was run: as §1

B. subtilis 168 [3] = test: Bliss interaction score (quartile over a dose matrix) (fitness difference); higher = more antagonism (negative = synergy)
How it was run: (§2)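 Quartiles of the Bliss score were taken over technical, biological and donor/recipient replicates. That score is observed fitness minus the product of the single-drug fitness values, which were inferred from combination data. Fitness itself is OD595 at entry into stationary phase divided by the plate's robust no-drug mean, with a cap at 1.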

S. aureus DSM 20231 = test: as above
How it was run: as §2

S. aureus Newman = test: as above
How it was run: as §2

S. pneumoniae D39V [4] = test: as above
How it was run: as §2
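Wherever Bliss interaction score (quartile over a dose matrix) is given: first quartile when negative (synergy) and third quartile when positive (antagonism).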

CO/N=C(\C(=O)N[C@@H]1C(=O)N2C(C(=O)O)=C(COC(C)=O)CS[C@H]12)c1csc(N)n1 [Cefotaxime] + C[C@H]1c2cccc(O)c2C(=O)C2=C(O)[C@]3(O)C(=O)C(C(N)=O)=C(O)[C@@H](N(C)C)[C@@H]3[C@@H](O)[C@@H]21 [Doxycycline]
fitness, one replicate
Settings	first compound 0.0018 µg/mL	first compound 0.0035 µg/mL	first compound 0.007 µg/mL	first compound 0.00775 µg/mL	first compound 0.0155 µg/mL	first compound 0.031 µg/mL	first compound 0.0625 µg/mL	first compound 0.125 µg/mL	first compound 0.25 µg/mL
B. subtilis 168 [1], partner 0.02 µg/mL	–	–	–	0.855	0.698	0.508	0.608	0.538	0.467
B. subtilis 168 [1], partner 0.04 µg/mL	–	–	–	0.665	0.523	0.377	0.511	0.366	0.304
B. subtilis 168 [1], partner 0.08 µg/mL	–	–	–	0.278	0.0446	0.0311	0.343	0.209	0.252
S. pneumoniae D39V [2], partner 0.003875 µg/mL	≥ 1	≥ 1	0.866	–	–	–	–	–	–
S. pneumoniae D39V [2], partner 0.00775 µg/mL	≥ 1	0.974	0.888	–	–	–	–	–	–

fitness
Settings	first compound 0.0018 µg/mL	first compound 0.0035 µg/mL	first compound 0.007 µg/mL	first compound 0.5 µg/mL	first compound 1 µg/mL	first compound 2 µg/mL
B. subtilis 168 [1], partner 0.02 µg/mL	–	–	–	0.288	0.198	0.157
B. subtilis 168 [1], partner 0.04 µg/mL	–	–	–	0.204	0.086	0.0899
B. subtilis 168 [1], partner 0.08 µg/mL	–	–	–	0.0692	0.0318	0.0723
S. pneumoniae D39V [2], partner 0.0155 µg/mL	0.955	0.943	0.864	–	–	–
S. pneumoniae D39V [2], partner 0.031 µg/mL	0.814	0.801	0.794	–	–	–

Settings	Bliss interaction score
B. subtilis 168 [3]	0.0737
S. aureus DSM 20231	0.141
S. aureus Newman	0.0304
S. pneumoniae D39V [4]	0.0963

C[C@@H]1O[C@@H]1P(=O)(O)O [Fosfomycin] + C[C@H]1COc2c(N3CCN(C)CC3)c(F)cc3c(=O)c(C(=O)O)cn1c23 [Levofloxacin]
fitness, B. subtilis 168 [1], one replicate
Settings	first compound 1.562 µg/mL	first compound 3.124 µg/mL	first compound 6.248 µg/mL
partner 0.001 µg/mL	0.864	0.738	0.599
partner 0.0078 µg/mL	0.75	0.643	0.492

Settings	fitness
B. subtilis 168 [1], first compound 1.562 µg/mL, partner 0.002 µg/mL	0.717
B. subtilis 168 [1], first compound 1.562 µg/mL, partner 0.0039 µg/mL	0.724
B. subtilis 168 [1], first compound 1.562 µg/mL, partner 0.0312 µg/mL	0.0432
B. subtilis 168 [1], first compound 1.562 µg/mL, partner 0.0625 µg/mL	0.0523
B. subtilis 168 [1], first compound 1.562 µg/mL, partner 0.125 µg/mL	0.0479
B. subtilis 168 [1], first compound 3.124 µg/mL, partner 0.002 µg/mL	0.629
B. subtilis 168 [1], first compound 3.124 µg/mL, partner 0.0039 µg/mL	0.617
B. subtilis 168 [1], first compound 3.124 µg/mL, partner 0.0312 µg/mL	0.0352
B. subtilis 168 [1], first compound 3.124 µg/mL, partner 0.0625 µg/mL	0.0394
B. subtilis 168 [1], first compound 3.124 µg/mL, partner 0.125 µg/mL	0.0439
B. subtilis 168 [1], first compound 6.248 µg/mL, partner 0.002 µg/mL	0.525
B. subtilis 168 [1], first compound 6.248 µg/mL, partner 0.0039 µg/mL	0.516
B. subtilis 168 [1], first compound 6.248 µg/mL, partner 0.0312 µg/mL	0.0328
B. subtilis 168 [1], first compound 6.248 µg/mL, partner 0.0625 µg/mL	0.0306
B. subtilis 168 [1], first compound 6.248 µg/mL, partner 0.125 µg/mL	0.023
S. pneumoniae D39V [2], first compound 1.25 µg/mL, partner 0.1725 µg/mL	0.953
S. pneumoniae D39V [2], first compound 1.25 µg/mL, partner 0.2 µg/mL	0.936
S. pneumoniae D39V [2], first compound 1.25 µg/mL, partner 0.345 µg/mL	0.86
S. pneumoniae D39V [2], first compound 1.25 µg/mL, partner 0.4 µg/mL	0.857
S. pneumoniae D39V [2], first compound 1.25 µg/mL, partner 0.69 µg/mL	0.633
S. pneumoniae D39V [2], first compound 2.5 µg/mL, partner 0.1725 µg/mL	0.88
S. pneumoniae D39V [2], first compound 2.5 µg/mL, partner 0.2 µg/mL	0.892
S. pneumoniae D39V [2], first compound 2.5 µg/mL, partner 0.345 µg/mL	0.735
S. pneumoniae D39V [2], first compound 2.5 µg/mL, partner 0.4 µg/mL	0.823
S. pneumoniae D39V [2], first compound 2.5 µg/mL, partner 0.69 µg/mL	0.574
S. pneumoniae D39V [2], first compound 5 µg/mL, partner 0.1725 µg/mL	0.821
S. pneumoniae D39V [2], first compound 5 µg/mL, partner 0.2 µg/mL	0.794
S. pneumoniae D39V [2], first compound 5 µg/mL, partner 0.345 µg/mL	0.728
S. pneumoniae D39V [2], first compound 5 µg/mL, partner 0.4 µg/mL	0.697
S. pneumoniae D39V [2], first compound 5 µg/mL, partner 0.69 µg/mL	0.536
S. pneumoniae D39V [2], first compound 5 µg/mL, partner 0.8 µg/mL	0.341

Settings	Bliss interaction score
B. subtilis 168 [3]	-0.0453
S. aureus DSM 20231	0.0688
S. aureus Newman	0.0484
S. pneumoniae D39V [4]	0.0613
